Measurements from patent US20230219939A1, “N-(1-CYANO-PYRROLIDIN-3-YL)-5-(3-(TRIFLUOROMETHYL)PHENYL)OXAZOLE-2-CARBOXAMIDE DERIVATIVES AND THE CORRESPONDING OXADIAZOLE DERIVATIVES AS USP30 INHIBITORS FOR THE TREATMENT OF MITOCHONDRIAL DYSFUNCTION” (MISSION THERAPEUTICS LIMITED, priority 2020, published 2023).

Key:
PK mouse 2 mg/kg iv = format: in vivo; settings: plasma, read-out: Cl plasma
From the text: Cl in vivo clearance: Pharmacokinetic measurement of the volume of plasma (or any matrix) from which a substance is completely removed per unit time.

[1] = Brain homogenate binding, equilibrium dialysis; format: in vitro ADME; settings: mouse, read-out: Binding Mouse Brain fu, br
From the text: Brain fu,br: The free fraction of a compound in brain homogenate preparation determined by in vitro equilibrium dialysis. It is understood that only unbound (free) compound is capable of engaging with the target.

Cathepsin V = Cathepsin V (Homo sapiens, UniProt O60911); assay: Cathepsin V IC50; format: biochemical
FaSSIF solubility = format: physicochemical; settings: pH 6.5, simulated intestinal fluid fasted state
From the text: FaSSIF: simulated intestinal fluid in fasted state measured at pH 6.5.

[2] = system: USP2, USP6, USP10, USP16, USP21, USP22, USP25, USP28; assay: DUB selectivity panel IC50; format: biochemical
Log D = format: physicochemical; settings: pH 7.4; read-out: Log D measured at pH 7.4
From the text: log D: distribution co-efficient; lipophilicity measurement.

Mouse plasma stability = format: in vitro ADME
UCHL1 = biological target: T1, UCHL1 (Homo sapiens, UniProt P09936); assay: UCHL1 DUB IC50; format: biochemical
T1 sequence (P09936 1-223): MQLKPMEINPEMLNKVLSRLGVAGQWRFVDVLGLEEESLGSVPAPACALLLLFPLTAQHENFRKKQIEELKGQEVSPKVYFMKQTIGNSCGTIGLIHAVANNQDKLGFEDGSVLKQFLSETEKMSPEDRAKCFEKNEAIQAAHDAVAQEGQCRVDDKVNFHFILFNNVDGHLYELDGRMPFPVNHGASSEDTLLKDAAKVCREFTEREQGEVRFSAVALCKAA

hepatocytes = assay: Hepatocyte Cl human; format: in vitro ADME
Experimental: Hep Cl human: in vitro hepatocyte clearance in human cells.
Clu: in vitro clearance. Clu as defined here is the scaled clearance, in turn calculated from the intrinsic clearance. The intrinsic clearance is the predicted clearance due to hepatic metabolic reactions, determined from incubation of a compound in a hepatocyte preparation.

Cathepsin S = Cathepsin S (Homo sapiens, UniProt P25774); assay: Cathepsin S IC50; format: biochemical
Cathepsin L = Cathepsin L (Homo sapiens, UniProt P07711); assay: Cathepsin L IC50; format: biochemical; settings: read-out: Cathepsin IC50 (μM) Cathepsin L
[3] = WT-MDCK (wild-type) in vitro flux; format: in vitro ADME; settings: dog
From the text: WT-MDCK (wild-type) in vitro flux.

[4] = Plasma binding, equilibrium dialysis; format: in vitro ADME; settings: mouse plasma; read-out: Binding Mouse Plasma fu, p
From the text: Plasma fu,p: The free fraction of a compound in plasma preparation determined by in vitro equilibrium dialysis. It is understood that only unbound (free) compound is capable of engaging with the target.

UUO injured kidneys = assay: Unilateral ureteral obstructive kidney disease model (UUO); format: in vivo, C57BL/6 mice; settings: 10 days
From the text: UUO causes renal injury characterised by tubular cell injury, interstitial inflammation and fibrosis. It serves as a model of irreversible post-renal acute kidney injury (AKI). Experimental UUO has illustrated the molecular mechanisms of apoptosis, inflammation and fibrosis, all of which are key processes in renal injury, regardless of the primary insult. Consequently, the UUO model provides investigators information beyond obstruction (Chevalier et al, 2009, Kidney Int 75(11): 1145-1152). Example 1 was assessed in the UUO model to determine the ability of the compound to attenuate progressive tubulointerstitial fibrosis and chronic kidney disease (CKD). On day 1 of the study, adult C57BL/6 mice were dosed by oral gavage according to one of the following dosing regimens; Vehicle or 15 mg/kg Example 1 (p.o.) BID. Two hours post dosing on day 1 study mice underwent surgery to ligate the left ureter at two points. Successful UUO surgery was later confirmed by observation of dilation of renal pelvis due to hydronephrosis. The animals were dosed according to their prescribed regimen for 10 days at which point kidneys were harvested, or histopathology assessment and for protein/RNA assessment. Picrosirius Red staining was performed to assess the extent of collagen deposition and IHC was employed to assess relative α-Smooth Muscle Actin (α-SMA) expression.

Cathepsin K = biological target: T2, Cathepsin K (Homo sapiens, UniProt P43235); assay: Cathepsin K IC50; format: biochemical
T2 sequence (P43235 115-329): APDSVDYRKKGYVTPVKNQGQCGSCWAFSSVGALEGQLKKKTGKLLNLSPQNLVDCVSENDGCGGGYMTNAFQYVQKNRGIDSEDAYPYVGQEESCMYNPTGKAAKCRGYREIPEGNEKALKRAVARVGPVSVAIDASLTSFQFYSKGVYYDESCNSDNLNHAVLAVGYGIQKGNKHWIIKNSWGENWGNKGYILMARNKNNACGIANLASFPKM

[5] = system: P-glycoprotein (human MDR1); assay: MDR1-MDCK flux assay; format: in vitro ADME, Canine; settings: dog, read-out: MDR1-MDCK Effective efflux ratio
From the text: The treatment of CNS disorders, including Alzheimer's disease, Parkinson's disease, and other disorders described herein, requires drug molecules to target the brain, which requires adequate penetration of the blood brain barrier. […] The probability that a compound can cross the blood brain barrier may be measured by an in vitro flux assay utilizing a MDR1-MDCK cell monolayer (Madin-Darby Canine Kidney cells transfected with MDR-1 resulting in overexpression of the human efflux transporter P-glycoprotein). Additionally, exposure may also be measured directly in brain and plasma using in vivo animal models.
MDR1-MDCK (Madin-Darby Canine Kidney cell monolayer) (in vitro) flux assay.

Chain of Cathepsin S (P25774 115-331, species assumed): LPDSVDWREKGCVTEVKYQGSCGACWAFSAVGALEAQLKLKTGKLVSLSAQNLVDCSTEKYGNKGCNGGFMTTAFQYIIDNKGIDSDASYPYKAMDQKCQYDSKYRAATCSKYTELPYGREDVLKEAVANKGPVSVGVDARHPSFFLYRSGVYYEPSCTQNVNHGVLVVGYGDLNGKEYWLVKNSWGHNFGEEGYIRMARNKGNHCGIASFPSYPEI
Chain of Cathepsin L (P07711 114-333, species assumed): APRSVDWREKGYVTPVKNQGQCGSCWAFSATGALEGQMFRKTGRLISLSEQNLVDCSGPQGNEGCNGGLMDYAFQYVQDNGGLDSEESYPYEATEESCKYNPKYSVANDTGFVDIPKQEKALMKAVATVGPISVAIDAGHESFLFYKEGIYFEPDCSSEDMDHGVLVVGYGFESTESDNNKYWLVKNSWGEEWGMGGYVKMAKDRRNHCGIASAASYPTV
Chain of Cathepsin V (O60911 114-334, species assumed): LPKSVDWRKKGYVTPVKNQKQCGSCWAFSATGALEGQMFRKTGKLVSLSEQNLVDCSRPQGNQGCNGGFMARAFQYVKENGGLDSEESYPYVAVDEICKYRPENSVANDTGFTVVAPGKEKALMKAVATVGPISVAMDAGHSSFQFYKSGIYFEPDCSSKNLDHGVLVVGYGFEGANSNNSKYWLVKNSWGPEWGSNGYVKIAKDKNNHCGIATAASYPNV

Structure (SMILES): COC[C@@H]1C[C@@H](NC(=O)c2ncc(-c3cccc(C(F)(F)F)c3)o2)CN1C#N [Example 1, N-((3R,5S)-1-Cyano-5-(methoxymethyl)-pyrrolidin-3-yl)-5-(3-(trifluoromethyl)phenyl)oxazole-2-carboxamide]
- clearance (PK mouse 2 mg/kg iv): 19 mL/min/kg
- fraction unbound [1]: 0.05
- IC50 (Cathepsin V): 105 µM
- FaSSIF (μM) measured at pH 6.5 (FaSSIF solubility): 200 μM
- DUB selectivity preference for USP30 v 8 DUBs [2]: >1777
- IC50 ([2]; range over the eight DUBs, read-out: DUB IC50 (μM) USP2, USP6, USP10, USP16, USP21, USP22, USP25, USP28): 16 to 97.9 µM
- logD (Log D): 2.6
- plasma stability compared to Reference Example B (in words) (Mouse plasma stability): significantly improved plasma stability
- half-life (Mouse plasma stability; mouse plasma, read-out: Stability Mouse plasma t1/2): 5.98 h
- IC50 (UCHL1): > 300 µM
- Hepatocyte Cl human Scaled Clu (hepatocytes): 10.3 mL/min/kg
- IC50 (Cathepsin S): 138 µM
- IC50 (Cathepsin L): 30.4 µM
- efflux ratio [3]: 0.8
- Papp A→B ([3]; A-B): 11.8 ×10⁻⁶ cm/s
- fraction unbound [4]: 0.12
- α-SMA levels in UUO injured kidneys (IHC) (UUO injured kidneys; 15 mg/kg oral BID, vs vehicle treated controls): statistical reduction in α-SMA levels
- collagen deposition (picrosirius red staining) in ligated kidneys (UUO injured kidneys; 15 mg/kg p.o. BID, vs vehicle): statistically reduced collagen deposition
- IC50 (Cathepsin K): 10.2 µM
- efflux ratio [5]: 1.2
